In patent US5932208A, “Compositions and methods for the use of such compositions in human therapeutics, characterized by the association of a muramyl peptide with a cytokine” (Vacsyn S.A., priority 1993, dated 1999):
“And” between values parts separate entries of the source, which are not always exact repeats. Identical values can stand only once.

Assays:
[1] = system: IL-1 RA; test: In vitro incubation of blood of healthy volunteers: IL-1 RA secreted; type: cell-based, human
Description: (§1) Blood taken from healthy volunteers was incubated in vitro with different combinations associating murabutide and α-IFN. The murabutide was used at a dose of 20 μg/ml and the IFN was used at a dose of from 30 to 100 μ/ml. At different times in the course of incubation, blood samples are taken and the mononucleated cells are separated on a Ficoll gradient. The total RNA is extracted, purified and separated by electrophoresis. It is then analysed in accordance with the Schreck method in order to determine by a hybridisation technique what genes were induced by the treatment.
(§2) Studies similar to those described above were carried out in order to study the murabutide-GM-CSF association. These studies were carried out in vitro on the cells of healthy volunteers after incubation with immunomodulators alone or in association.
(§3) Specific cytokines were sought and measured in the supernatants (see Table XIII).

[2] = system: IL-6; test: In vitro incubation of blood of healthy volunteers: IL-6 secreted; type: cell-based, human
Description: as §1, §2, §3

[3] = system: sTNFR2; test: In vitro incubation of blood of healthy volunteers: sTNFR2 secreted; type: cell-based, human
Description: as §1, §2, §3

[4] = system: G-CSF; test: G-CSF test on sera of healthy volunteers; type: in vivo, human; details: α-IFN 0, muramyl peptide 100 μg/Kg alone; for Amounts of G-CSF in serum after 0 hour: before administration
Description: (§4) They receive subcutaneously the mixtures described in the following table I of murabutide (MUB) or murametide (MUM) with α-interferon 2a (α-IFN).
(§5) Blood samples are taken before injection and 6 hours, 24 hours and 48 hours after injection, in order to collect the serum necessary to carry out the tests for neopterine, interleukin 1, 6 and 8, G-CSF, IL-1 RA and α-TNF.
(§6) The blood samples for the serum tests are centrifuged at 4° C. and 3000 rpm for 10' immediately after they are taken. The sera are stored at -20° C. The leucocyte counts and the neopterine and cytokine tests are carried out using commercial kits.
These tests were carried out using the British Biotechnology Products Ltd. kit (see Table VI).

[5] = system: IL-1 receptor antagonist (IL-1 RA); test: IL-1 receptor antagonist (IL-1 RA) test on sera of healthy volunteers; type: in vivo, human; details: α-IFN 0, muramyl peptide 100 μg/Kg alone; 6 hours after administration
Description: as §4, §5, §6

[6] = system: neopterine; test: Neopterine test (RIA) on sera of healthy volunteers; type: in vivo, human; details: for Influence on the amount of neopterine, in words: dose of 100 μg/kg alone; for Neopterine in serum: muramyl peptide 100 μg/Kg alone (α-IFN 0)
Description: as §4, §5, §6
The tests are carried out on sera taken at 0, 24 and 48 hours. An RIA (Radio Immuno Assay) kit (Behring Diagnostic, France) is used. The results are expressed in […], and the normal values vary from […].

[7] = system: IL-6; test: IL-6 test (Elisa) on sera of healthy volunteers; type: in vivo, human; details: α-IFN 0, muramyl peptide 100 μg/Kg alone; 6 hours after administration
Description: as §4, §5, §6
The test is carried out using an Elisa test kit (British Biotechnology Products Ltd.) on sera taken at time 0 and after 6 hours. The figures express the pg/ml, the normal values are less than 6 pg.

[8] = system: Soluble TNF receptor (STNF-R); test: Soluble TNF receptor (STNF-R) ELISA test in serum; type: in vivo, human; details: α-IFN 6 × 10^6 units and/or murabutide 100 μg/Kg
Description: These tests are carried out by an ELISA test in the serum of subjects having 6M units of IFN. At that dose, there is already an appreciable increase in the amount of STNF-R but the addition of murabutide permits a significant increase in the secretion of that mediator.

[9] = system: Swiss mice; test: Endotoxic shock (D-galactosamine + LPS) model in Swiss mice; type: in vivo; details: for Average % mortality / Number of dead mice per total tested, Exp. 1 / Number of dead mice per total tested, Exp. 2 / Number of dead mice per total tested, Exp. 3: intravenously, mortality after 48 hours
Description: The administration of D-galactosamine with lipopolysaccharide (LPS) to Swiss mice induces endotoxic shock with at least 70% mortality in 24-48 hours. The prophylactic or therapeutic effect of murabutide was studied in this model in order to evaluate its anti-inflammatory activity when it is administered alone or in combination with α/β-IFN. […] On the contrary, pretreatment with a combination of murabutide and α/β-interferon induces significant protection with an incidence of mortality of only 33% (against 78% in the controls).
^1) The Swiss mice were tested intraperitoneally at time 0 with 18 mg
of Dgalactosamine + 50 ng of LPS. The mortality was measured after 48
^2) The compounds are administered intravenously either 3 hours befor

[10] = system: circulating neutrophils; test: Neutrophil count after repeated administration to humans (days 1, 3 and 5); type: in vivo, human; details: α-IFN 2a 1 MU and/or murabutide 7 mg on days 1, 3 and 5
Description: Phase I/IIa tests were carried out on 3 groups of 6 healthy volunteers who received the following treatments on days 1, 3 and 5:
a) α-IFN 2a (1 MU) Roferon;
c) the association of the two immunostimulants.
By studying their influence on the number of circulating neutrophils.

[11] = system: neutrophils; test: Neutrophil counts in healthy volunteers after single subcutaneous administration; type: in vivo, human; details: α-IFN 0, muramyl peptide 100 μg/Kg alone; highest value during the 24 hours after administration
Description: as §4
The subjects are monitored during the three days following the administration of the IFN and/or the muramyl peptides, and all of the tests and investigations necessary to carry out a phase I test are effected.
Haematological analysis with white corpuscle counts at the time of injection and then 6 hours, 12 hours, 24 hours, 36 hours, 60 hours and 72 hours after injection.
The leucocyte counts are carried out in a COULTER COUNTER automatic cell counter.
Neutrophils are the cells which are the most affected by leucopenic treatments. It is the reduction in the amount of neutrophils which is responsible for the reduction in the non-specific immune defences in subjects subjected to radiotherapy or to cytotoxic and/or myelotoxic chemotherapy. To make reading easier, only the neutrophil counts made at the time when their variation is at its greatest have been given.

[12] = system: KHT sarcoma cells; test: KHT sarcoma model in C3H/HeN mice, IL-2 with murametide; type: in vivo
Description: A murine model has been developed in C3H/HeN mice. KHT sarcoma cells are administered by the venous route. After 4 days and 6 days they are treated with:
c) the association of the two immunomodulators;
d) a fourth group is not treated.

[13] = GM-CSF 1 ng/ml, without or with Murabutide 20 μg/ml
[14] = GM-CSF 5 ng/ml, without or with Murabutide 20 μg/ml
[15] = +1 hr, Murabutide 15 mg/kg and/or α/β-IFN 1.25 × 10^6 IU/kg (alone: 11.25 × 10^6 IU/kg [sic])
[16] = Murabutide 15 mg/kg alone, -3 hrs

## GM-CSF: cytokine GM-CSF
[1]; [13]
  Average amounts of cytokines secreted: IL-1 RA: 4.0 ± 1.4 ng/mL
[1]; [14]
  Average amounts of cytokines secreted: IL-1 RA: 8.7 ± 10.0 ng/mL
[2]; [13]
  Average amounts of cytokines secreted: IL-6: 2.0 ± 1.5 pg/mL
[2]; [14]
  Average amounts of cytokines secreted: IL-6: 2.3 ± 2.1 pg/mL
[3]; [13]
  Average amounts of cytokines secreted: sTNFR2: 1027 ± 624 pg/mL
[3]; [14]
  Average amounts of cytokines secreted: sTNFR2: 1359 ± 350 pg/mL

## CCCCOC(=O)[C@@H](CCC(N)=O)NC(=O)[C@H](C)NC(=O)[C@@H](C)O[C@H]1[C@H](O)[C@@H](CO)OC(O)[C@@H]1NC(C)=O (stereo partly shown) [Murabutide, murabutide]
[4]
  Amounts of G-CSF in serum after 6 hours: 18 ± 9
  Amounts of G-CSF in serum after 0 hour: < 10
[1]; Murabutide 20 μg/ml alone
  Average amounts of cytokines secreted: IL-1 RA: 7.8 ± 6.0 ng/mL
[5]
  Amounts of IL-1 RA in the serum: 496 ± 326 pg/mL
[6]
  Influence on the amount of neopterine, in words: does not influence the amount significantly
[6]; T 0 hours
  Neopterine in serum: 6.37 ± 0.99 nM
[6]; T 24 hours
  Neopterine in serum: 7.33 ± 0.75 nM
[6]; T 48 hours
  Neopterine in serum: 8.22 ± 1.39 nM
[7]
  Amounts of IL-6 in the serum: 2.80 ± 1.60 pg/mL and 4.30 ± 1.80 pg/mL
[8]
  Amount of STNF-R in the serum, 0 hour: 195 ± 28 pg/mL
  Amount of STNF-R in the serum, 6 hours: 616 ± 65 pg/mL
[8]; 6 hours versus 0 hour
  STNF-R net increase: 31 ± 37 pg/mL
[9]; [15]
  Average % mortality: 31%
  Number of dead mice per total tested, Exp. 1: 2/9
  Number of dead mice per total tested, Exp. 2: 3/8
  Number of dead mice per total tested, Exp. 3: 3/9
[9]; [16]
  Average % mortality: 74%
  Number of dead mice per total tested, Exp. 1: 7/9
  Number of dead mice per total tested, Exp. 2: 7/8
  Number of dead mice per total tested, Exp. 3: 6/10
[9]; administration 1 hour after the induction of endotoxic shock
  Curative effect, in words: significant curative effect
[9]; pretreatment of the mice
  Prophylactic effect against the galactosamine/LPS mixture, in words: does not give rise to a prophylactic effect
[2]; Murabutide 20 μg/ml alone
  Average amounts of cytokines secreted: IL-6: 15.5 ± 11.3 pg/mL
[10]; day of treatment 1
  Neutrophil count (% of the base line) after 3 hours: 139 ± 26 % of the base line
  Neutrophil count (% of the base line) after 6 hours: 256 ± 51 % of the base line
  Neutrophil count (% of the base line) after 12 hours: 227 ± 46 % of the base line
[10]; day of treatment 3
  Neutrophil count (% of the base line) after 3 hours: 133 ± 24 % of the base line
  Neutrophil count (% of the base line) after 6 hours: 182 ± 27 % of the base line
  Neutrophil count (% of the base line) after 12 hours: 176 ± 59 % of the base line
[10]; day of treatment 5
  Neutrophil count (% of the base line) after 3 hours: 107 ± 19 % of the base line
  Neutrophil count (% of the base line) after 6 hours: 150 ± 28 % of the base line
  Neutrophil count (% of the base line) after 12 hours: 153 ± 23 % of the base line
[3]; Murabutide 20 μg/ml alone
  Average amounts of cytokines secreted: sTNFR2: 1171 ± 478 pg/mL
[11]
  Neutrophil count % base line: 268 ± 43 % base line

## COC(=O)[C@@H](CCC(N)=O)NC(=O)[C@H](C)NC(=O)C(C)O[C@H]1[C@H](O)[C@@H](CO)O[C@H](O)[C@@H]1NC(C)=O (stereo partly shown) [Murametide, murametide]
[12]; mice having pulmonary sarcoma metastases, preliminary data
  Antitumour activity: no antitumour activity
[12]; mice having tumours
  Toxicity of IL-2 in mice having tumours: reduces the toxicity of IL-2
[4]
  Amounts of G-CSF in serum after 6 hours: 73 ± 115
  Amounts of G-CSF in serum after 0 hour: 61 ± 103
[6]
  Influence on the amount of neopterine, in words: does not influence the amount significantly
[6]; T 0 hours
  Neopterine in serum: 5.43 ± 0.66 nM
[6]; T 24 hours
  Neopterine in serum: 7.14 ± 1 nM
[6]; T 48 hours
  Neopterine in serum: 7.39 ± 1.37 nM
[11]
  Neutrophil count % base line: 279 ± 67 % base line
